How the values were obtained:
[1] = tested on: Myzus persicae; experiment: Myzus persicae test (Example C), sprayed cabbage leaves; assay type: in vivo; settings: alone; for pest or weed control at 0.8 g/ha / pest or weed control at 0.16 g/ha / pest or weed control at 0.032 g/ha / pest or weed control at 4 g/ha: Myzus persicae, 144 h, read-out: Kill in % after 6d
[2] = tested on: Tetranychus urticae; experiment: Tetranychus urticae test (OP-resistant/spray treatment) (Example G), bean leaf disks; assay type: in vivo; settings: for pest or weed control at 20 g/ha / pest or weed control at 4 g/ha / pest or weed control at 0.8 g/ha: Tetranychus urticae, foliar, 144 h, read-out: Kill in % after 6 d; for pest or weed control at 20 g/ha / Kill in % after 6d / pest or weed control at 4 g/ha / pest or weed control at 0.8 g/ha: active compound alone, after 6 d; for Kill in % after 2d: alone
Procedure: Tetranychus urticae Test (OP-Resistant/Spray Treatment)
After the desired period of time, the activity in % is determined.

Compound: CCc1nn(C)c(C(=O)NCc2ccc(C(C)(C)C)cc2)c1Cl [tebufenpyrad (64), tebufenpyrad]
- pest or weed control at 0.8 g/ha ([1]; 0.8 g/ha, after 6 d): 0%

Compound: O=C1C=C(N(Cc2ccc(Cl)nc2)CC(F)F)CO1 [compound (101)]
- pest or weed control at 0.8 g/ha ([1]; 0.8 g/ha, after 6 d): 50%
- pest or weed control at 20 g/ha ([2]; 20 g/ha): 0%

Compound: CN(Cc1ccc(Cl)nc1)C1=CC(=O)OC1 [compound (100)]
- pest or weed control at 0.16 g/ha ([1]; after 6 d): 0%

Compound: CN1COCN(Cc2cnc(Cl)s2)/C1=N/[N+](=O)[O-] [thiamethoxam (26), thiamethoxam]
- pest or weed control at 0.032 g/ha ([1]; after 6 d): 0%

Compound: Cc1nn(C)c(/C(OC(=O)C(C)(C)C)=C(\C#N)c2ccc(C(C)(C)C)cc2)c1C [cyenopyrafen (71), (1E)-2-cyano-2-[4-(1,1-dimethylethyl)phenyl]-1-(1,3,4-trimethyl-1H-pyrazol-5-yl)ethenyl 2,2-dimethylpropanoate]
- pest or weed control at 0.8 g/ha ([1]; 0.8 g/ha, after 6 d): 0%

Compound: N#Cc1nn(-c2c(Cl)cc(C(F)(F)F)cc2Cl)c(N)c1[S+]([O-])C(F)(F)F (centres unmarked) [fipronil (50), fipronil]
- pest or weed control at 4 g/ha ([1]; 4 g/ha, after 6 d): 0%

Compound: FC(F)(F)c1ccc(OCCCOc2c(Cl)cc(OCC=C(Cl)Cl)cc2Cl)nc1 [pyridalyl (99)]
- Kill in % after 6d ([2]; 20 g/ha): 0%

Compound: CNC(=O)c1cc(Cl)cc(C)c1NC(=O)c1cc(Br)nn1-c1ncccc1Cl [Rynaxapyr (56), chlorantraniliprole]
- pest or weed control at 0.16 g/ha ([1]; after 6 d): 0%
- pest or weed control at 4 g/ha ([2]; 4 g/ha): 0%

Compound: COc1cccc(C(=O)NN(C(=O)c2cc(C)cc(C)c2)C(C)(C)C)c1C [methoxyfenozide (44), methoxyfenozide]
- pest or weed control at 0.8 g/ha ([1]; 0.8 g/ha, after 6 d): 0%
- pest or weed control at 20 g/ha ([2]; 20 g/ha): 0%

Compound: CC[S+]([O-])c1c(C#N)nn(-c2c(Cl)cc(C(F)(F)F)cc2Cl)c1N (centres unmarked) [ethiprole (51)]
- Kill in % after 6d ([2]; 100 g/ha): 0%

Compound: CNC(=O)O/N=C/C(C)(C)SC [aldicarb (108), aldicarb]
- Kill in % after 1d ([1]; 4 g/ha): 30%

Compound: abamectin [abamectin (60)]
- Kill in % after 1d ([1]; 20 g/ha): 5%

Compound: Cc1cc(C)c(C2=C(OC(=O)CC(C)(C)C)C3(CCCC3)OC2=O)c(C)c1 [spiromesifen (97), spiromesifen]
- pest or weed control at 0.8 g/ha ([1]; 0.8 g/ha, after 6 d): 0%

Compound: carbosulfan [carbosulfan (109)]
- Kill in % after 1d ([1]; 4 g/ha): 0%

Compound: profenofos [profenofos (114)]
- Kill in % after 1d ([1]; 0.8 g/ha): 0%
- Kill in % after 6d ([2]; 20 g/ha): 0%

Compound: Cc1nn(C)c(Oc2ccccc2)c1C=NOCc1ccc(C(=O)OC(C)(C)C)cc1 [fenpyroximate (65), fenpyroximate]
- pest or weed control at 0.8 g/ha ([1]; 0.8 g/ha, after 6 d): 0%
- Kill in % after 2d ([2]; 0.8 g/ha): 10%

Compound: chlorpyrifos [chlorpyrifos (95)]
- Kill in % after 6d ([1]; 0.8 g/ha, after 6 d): 0%
- Kill in % after 6d ([2]; 20 g/ha): 0%

Compound: CC(c1ccc(C(F)(F)F)nc1)S(C)(=O)=NC#N (centres unmarked) [II-29-29]
- pest or weed control at 20 g/ha ([2]; 20 g/ha): 0%

Compound: COCCOC(=O)C(C#N)(C(=O)c1ccccc1C(F)(F)F)c1ccc(C(C)(C)C)cc1 (stereo not drawn) [cyflumetofen (72), 2-methoxyethyl alpha-cyano-alpha-[4-(1,1-dimethylethyl)phenyl]-beta-oxo-2-(trifluoromethyl)benzenepropanoate]
- pest or weed control at 4 g/ha ([1]; 4 g/ha, after 6 d): 0%
- pest or weed control at 4 g/ha ([2]; 4 g/ha): 80%

Compound: CN/C(=N/CC1CCOC1)N[N+](=O)[O-] (centres unmarked) [dinotefuran (29)]
- Kill in % after 6d ([2]; 4 g/ha): 0%

Compound: Cc1cc(C)c(-n2cnc(C(F)(F)F)n2)cc1SOCC(F)(F)F [compound (106)]
- pest or weed control at 4 g/ha ([1]; 4 g/ha, after 6 d): 0%

Compound: CCOCn1c(-c2ccc(Cl)cc2)c(C#N)c(Br)c1C(F)(F)F [chlorfenapyr (92), chlorfenapyr]
- pest or weed control at 0.8 g/ha ([1]; 0.8 g/ha, after 6 d): 0%
- pest or weed control at 4 g/ha ([2]; 4 g/ha): 70%

Compound: O=[N+]([O-])/N=C1\NCCN1Cc1ccc(Cl)nc1 [imidacloprid (24), imidacloprid]
- pest or weed control at 0.032 g/ha ([1]; after 6 d): 0%
- pest or weed control at 0.8 g/ha ([2]; 0.8 g/ha): 0%

Compound: N#CCNC(=O)c1cnccc1C(F)(F)F [flonicamid (89), flonicamid]
- Kill in % after 2d ([2]; 100 g/ha): 0%

Compound: CN/C(=N\[N+](=O)[O-])NCc1cnc(Cl)s1 [clothianidin (30), clothianidin]
- pest or weed control at 0.032 g/ha ([1]; after 6 d): 0%
- pest or weed control at 0.8 g/ha ([2]; 0.8 g/ha): 0%
